Row | Compound | melting point
1 | CCNC(=O)c1ccc(-c2ccc3nnn(Cc4ccc5ncccc5c4)c3n2)cc1F | 207 to 209 °C
2 | Cc1cc(C)cc(-c2cn(C(C)C)c3ccccc23)c1 | 60 to 62 °C
3 | CC(=O)NC[C@H]1CN(c2ccc3c(c2)C[C@@H](C)N3C(=O)COC(C)=O)C(=O)O1 | 186 to 187 °C
4 | CCC(C)(Cc1c[nH]c2ccccc12)[N+](=O)[O-] (stereo not given) | 79.5 to 80 °C
5 | C=C(CC)c1cn(-c2c(Cl)cc(C(F)(F)F)cc2Cl)nc1C#N | 104 to 105 °C
6 | Cc1cc(=O)c(OCC(=O)O)cn1C | 240 to 242 °C
7 | CCOC(=O)C1CC(=O)c2nc(C)c(C)n2C1 (stereo not given) | 138 to 140 °C
8 | CN1C(=O)C(Cc2ccccc2)(c2ccccc2OCCCCBr)c2ccccc21 (stereo not given) | 174 to 175 °C
9 | NC(=O)c1c(Cl)c(-c2cncs2)n2c1CCCC2 | 227 °C
10 | Nc1nc(Cl)nc(NC2CC2)n1 | 188 to 189 °C
11 | COc1ccc2c(c1)SC(C#N)=C(N)CO2 | 203 to 205 °C
12 | O=C(CCCCCN1CCN(c2cccc3c2OCCCO3)CC1)N1Cc2ccccc2C1 | 131 °C
13 | O=C(Nc1cccc(-c2ccnc3c(C(=O)c4cccs4)cnn23)c1)NC1CCCCC1 | 233 to 236 °C
14 | CCOC(=O)c1c(N2CCN(C(=O)OCC)CC2)c2ccc(C)nc2n(CC)c1=O | 138 to 140 °C
15 | Cc1c(CC#N)cc(C(C)(C)C)c(O)c1C | 126 to 128 °C
16 | COc1cc(C=O)c([N+](=O)[O-])cc1OCCCCCCOC(C)=O | 79.8 to 81.5 °C
17 | O=C1OC(c2ccccc2)CCN1Cc1ccccc1NS(=O)(=O)C(F)(F)F (stereo not given) | 152 °C
18 | Cc1cc(C#CC2CC2)cc(C)c1Oc1ccc([N+](=O)[O-])c(Nc2ccc(C#N)cc2)n1 | 188 to 192 °C
19 | COc1ccc(Cc2nc3cccc([N+](=O)[O-])c3o2)cc1OC1CCCC1 | 95 to 98.5 °C
20 | O=c1c(Br)c(OCc2ccc(F)cc2)ccn1Cc1cccc(F)c1 | 180 to 183 °C

Row | Compound | melting point
21 | O=C(NC1N=C(c2ccccc2F)c2ccccc2N(C(=O)c2ccc(Cl)cc2)C1=O)c1ccc(Cl)cc1 (racemic) | 190 to 191 °C
22 | O=C1C(=O)c2ccccc2C2=C1SCC1(CCN(C3CCCC3O)CC1)O2 (stereo not given) | 110 to 113 °C
23 | O=[N+]([O-])c1cnc2sccc2c1Cl | 110 to 113 °C
24 | O=C1c2cccc3cccc(c23)C(=O)N1CCCCCBr | 113 to 115 °C
25 | Cc1noc(NC(=O)N2CCN(c3ccnc(-c4ccc(F)cc4F)n3)CC2)c1C | 207 to 208 °C
26 | Nc1ccc(CCC(=O)N(c2ccccc2)c2ccccc2)cc1[N+](=O)[O-] | 189 to 190 °C
27 | COc1ccc2c(c1)C1=C(SCC3(CCN(CC(O)COc4ccc(C(C)(C)C)cc4)CC3)O1)C(=O)C2=O (stereo not given) | 153 to 156 °C
28 | CCN1c2ncc(COc3cccnc3)cc2C(=O)N(C)c2ccc(Cl)nc21 | 183 to 184 °C
29 | O=C1CCC2=C1C(c1ccc(F)c(C(F)(F)F)c1)C1=C(CCS1)N2 (stereo not given) | 254 °C
30 | Cn1cnc2cc3[nH]c(-c4ccncc4)nc3cc21 | > 280 °C
31 | CCOC(=O)N(CC(=O)O)C(=O)c1c(OCC(F)(F)F)ccc2c(C(F)(F)F)c(OC)ccc12 | 166 to 167 °C
32 | Cc1cccc(CCOc2cccc(-c3cccc(C(=O)O)c3)n2)c1 | 125 to 126 °C
33 | COc1ccc(-c2nc3ccc(CBr)cc3o2)cc1 | 137 to 138 °C
34 | O=C(O)CCCCNC(=O)c1ccccc1NC(=O)c1ccccc1O | 168 to 170 °C
35 | CC(=O)N1CCc2c(sc(C)c2C(=O)CN2CCC(c3noc4cc(F)ccc34)CC2)C1 | 92 to 94 °C
36 | Clc1ccc(-c2nc(Cl)nc(Cl)n2)c(Cl)c1 | 118 °C
37 | CC1CCN(C(=O)[C@H](CCCNc2ncccn2)NS(=O)(=O)c2ccc3ccccc3c2)CC1 | 98 to 100 °C
38 | CN(Sc1ccccc1)C(=O)Oc1cccc2c1OC(C)(C)C2 | 66 °C
39 | CCCCCOC(=O)c1cc(O)nn1-c1ncccc1Cl | 172 to 173 °C
40 | O=C(CC(CSC(=O)c1ccccc1)C(=O)O)c1ccc(Br)cc1 (stereo not given) | 133 to 135 °C

Row | Compound | melting point
41 | CC(=O)OCc1c(C)n(C[C@H]2C[C@@H]2C)c2c(OCc3ccc(F)cc3)nncc12 | 122 to 123 °C
42 | O=C1NC(=O)C(Nc2ccc3ccccc3c2)S1 (stereo not given) | 200 to 201 °C
43 | CCCc1c(O)ccc2c1CCCC2=O | 159 to 160 °C
44 | CC(=O)Nc1ccc(N2C(=O)C3CCC2n2c(=O)n(-c4ccccc4)c(=O)n23)cc1 (stereo not given) | 144 to 145 °C
45 | Cc1c(-c2ccc(F)cc2)[nH]c(N2CCOCC2)c1C#N | 245 to 247 °C
46 | COc1cc2cnnc(N3CCC(CCN(C)C(=O)NC4CCCCC4)CC3)c2cc1OC | 204 to 206 °C
47 | Cn1c(-c2ccc(OC3CCN(C4CCCC4)CC3)cc2)nc2ncccc2c1=O | 175 to 177 °C
48 | CCc1nc(/C=C/c2cn(-c3ccccc3)nc2O)cs1 | 222 to 224 °C
49 | C#CCOc1cc(-n2ncc(=O)n(C)c2=O)c(Cl)cc1Cl | 119 to 120 °C
50 | COc1nnc2n1C=Cc1ccccc1C2 | 160 to 161 °C
51 | Cc1c2n(c3ccccc13)CC(C)(C)C2O (stereo not given) | 82 to 85 °C
52 | COc1cc(OC)c(-c2nncn2CC(C)C)cc1C=CC(=O)c1ccc(S(N)(=O)=O)cc1 | > 240 °C
53 | N#Cc1ncn2c1[C@@H]1CCN1C(=O)c1c(Br)cccc1-2 | 133 to 136 °C
54 | Cc1nc2c(c3c1[nH]c1cc(F)ccc13)C(=O)CC(C)(C)C2 | 244 to 246 °C
55 | Cc1cc2c(cc1C)OCC(NNc1ncnc3c1ncn3C1OC(CO)C(O)C1O)C2 (stereo not given) | 170 to 172 °C
56 | CC(Oc1ccc(Oc2ccc(Oc3ccc(OC(C)C(=O)O)cc3)cc2)cc1)C(=O)O (stereo not given) | 135 to 136 °C
57 | CCCCCCCCCCCCC1C=CC(Oc2ccc(C(=O)O)o2)=C2N=C3CCCCC3=C21 (stereo not given) | 110 to 112 °C
58 | CCCn1cnc2ncnn2c1=S | 168 to 169 °C
59 | CC1=C(CNC(=O)NCc2ccccc2)c2cc(F)ccc2/C1=C\c1ccc(S(C)(=O)=O)cc1 | 204 °C

Second part, the molecule after the results:

Row | melting point | Compound
60 | 75 °C | CC(C)(OCc1cc2cc(C(F)(F)F)ccc2n1S(=O)(=O)c1ccc2c(c1)OCCO2)C(=O)O
61 | 103 °C | O=C(Nc1ccccc1SCc1ncon1)c1ccc(Cl)cc1
62 | 139 to 140 °C | CCOC(=O)C(NC(=O)C(C)C)C(=O)Cc1ccc(Cl)cc1Cl (stereo not given)
63 | 111 to 112 °C | COC(=O)CCCSc1c(Cc2cccc3ccccc23)sc2c1c(=O)n(C)c(=O)n2CC(C)C
64 | 60 to 61 °C | O=C(Cc1ccccc1)c1ccc(SCC(F)(F)F)cc1
65 | 101 to 102 °C | Cc1c(N)c(C)c2c(c1-c1ccccc1)OCC2c1ccc(C(C)C)cc1 (stereo not given)
66 | 158 to 159 °C | CCCCn1c(=O)c2nn(S(=O)(=O)c3ccc(C(C)(C)C)cc3)cc2n(CCCC)c1=O
67 | 95 to 96 °C | CC(NC(=O)C(C)(C)CCl)c1ccc(Cl)cc1 (stereo not given)
68 | 162 °C | CCCCCCc1ccc(C(=O)Oc2ccc(C(=O)O)cc2)cc1
69 | 191 to 192 °C | COc1ccccc1-c1nc(C)c(C(N)=O)s1
70 | 213 °C | O=C(O)Cc1cc(C(=O)c2ccc([N+](=O)[O-])cc2)ccc1O
71 | 140 to 142 °C | O=C(O)COCc1cc2cc(Cl)ccc2n1S(=O)(=O)c1ccccc1
72 | 164 to 169 °C | Cc1cc(F)ccc1-c1cc(N2CCSCC2)ncc1C(=O)NC(C)(C)C
73 | 155 °C | CCCc1c(OCCOc2cccc(C(=O)O)c2)ccc(C(C)=O)c1O
74 | 98 to 100 °C | COc1ccc2c(c1)C(=O)N(C)CC(CCCl)O2 (stereo not given)
75 | 50 to 54 °C | COCOc1ccc(CSc2cnn(C(C)(C)C)c(=O)c2Cl)cc1
76 | 161 °C | O=[N+]([O-])c1ccc(O)cc1SCCO
77 | 200 to 203 °C | Cc1cc(OCc2sc(-c3ccc(C(F)(F)F)cc3)nc2C)ccc1/C=C/C(=O)O
78 | 238 to 242 °C | Cn1cnc(S(=O)(=O)Nc2ccc(C(c3c(O)c4c(oc3=O)CCCCCC4)C3CC3)cc2)c1 (stereo not given)
79 | 228 to 229 °C | CCCOc1ccccc1C=C1Oc2ccc(C(=O)O)cc2C1=O
80 | 143 to 144 °C | COc1ccc(OCCCc2cn(-c3ccc(C(F)(F)F)cn3)nc2C(C)C)c(CC(=O)O)c1

Row | melting point | Compound
81 | 115 to 122 °C | CCNc1nc(-c2ccccc2)c(-c2ccccc2)nc1Cl
82 | 100 to 102 °C | CCOC(=O)c1nc(-c2ccc(OC)c(OC)c2)cs1
83 | > 250 °C | COc1cccc2c(OCc3ccc(C(C)C)cc3)ccc(C=NNC(=O)c3ccc(O)c(Cl)c3)c12
84 | 128 to 130 °C | O=C(Nc1ccc([N+](=O)[O-])cc1Cl)OCCCl
85 | 155 to 157 °C | CC(C#Cc1ccc(Br)cc1)N(O)C(N)=O (stereo not given)
86 | 131 to 136 °C | COc1ccc(C(C)(CC(C)C)C(=O)NC2CCCCCCCCCCNC2=O)c(S)c1 (stereo not given)
87 | 60 °C | O=C([C@@H](Cc1ccc(Cl)cc1)NC1CCCCC1)N1CCC(Cn2cncn2)(C2CCCCC2)CC1
88 | 156 °C | Cc1ccc(C(=O)c2ccc3nc(Cl)nc(-c4cccc(Cl)c4)c3c2)cc1
89 | 143 to 144 °C | CCCc1ccc(-n2ncc(C#N)c2NC(C)=O)c(Cl)c1
90 | 273 to 275 °C | Cc1nnc2n1-c1ccccc1C(c1ccc(Cl)cc1)=NN2Cc1ccc(NS(C)(=O)=O)cc1
91 | 110 to 111 °C | CC(=O)Nc1ccc(O[C@H](c2ccc([N+](=O)[O-])cc2)[C@@H](O)CO)cc1
92 | 232 to 234 °C | COc1cc(OC)n2nc(S(=O)(=O)Nc3c(Cl)cccc3Cl)nc2n1
93 | 68 to 70 °C | C[C@@H](C(N)=O)c1ccc(NS(=O)(=O)Cc2ccccc2)cc1
94 | 200 to 203 °C | CN(C)C=C1C(=O)N(c2cccc(O)c2)c2ccccc21
95 | 180 to 185 °C | O=C(O)c1ccc(OCCCc2ccc(O)c(O)c2)cc1
96 | 211 to 213 °C | CC(C)(O)CN1c2cccnc2C(N)=CC1Cc1ccccc1 (stereo not given)
97 | 250 °C | CN(C(=O)Nc1ccc(Cl)cc1)c1nnc(Cl)s1
98 | 84 to 86 °C | CC(=O)c1ccc(-c2ccc(Br)cc2C)cc1
99 | 62 to 64 °C | CCOC(=O)C(C)(C)OCc1cc2cc(C(F)(F)F)ccc2n1S(=O)(=O)c1ccccc1
100 | 74 to 75 °C | CC(C)(C)CC(=O)Oc1ccc(-c2nn(C3CCCC3)c3c(F)cccc23)cc1

Reference: a melting point compilation (Tetko et al.; mined from patent text by program, amines drawn as free bases though some values may be those of a salt)
